ChEMBL document CHEMBL2074120, “Hepatic uptake of bilirubin and its conjugates by the human organic anion transporter SLC21A6” (J Biol Chem, 2001)

Legend:
Type in all cases: functional, cell-based
[1] = biological target: T1, Solute carrier organic anion transporter family member 1B3 (Homo sapiens, UniProt Q9NPD5); assay: (§1) TP_TRANSPORTER: uptake in OATP8-expressing HEK293 cells; details: hek293
T1 sequence (Q9NPD5 whole entry): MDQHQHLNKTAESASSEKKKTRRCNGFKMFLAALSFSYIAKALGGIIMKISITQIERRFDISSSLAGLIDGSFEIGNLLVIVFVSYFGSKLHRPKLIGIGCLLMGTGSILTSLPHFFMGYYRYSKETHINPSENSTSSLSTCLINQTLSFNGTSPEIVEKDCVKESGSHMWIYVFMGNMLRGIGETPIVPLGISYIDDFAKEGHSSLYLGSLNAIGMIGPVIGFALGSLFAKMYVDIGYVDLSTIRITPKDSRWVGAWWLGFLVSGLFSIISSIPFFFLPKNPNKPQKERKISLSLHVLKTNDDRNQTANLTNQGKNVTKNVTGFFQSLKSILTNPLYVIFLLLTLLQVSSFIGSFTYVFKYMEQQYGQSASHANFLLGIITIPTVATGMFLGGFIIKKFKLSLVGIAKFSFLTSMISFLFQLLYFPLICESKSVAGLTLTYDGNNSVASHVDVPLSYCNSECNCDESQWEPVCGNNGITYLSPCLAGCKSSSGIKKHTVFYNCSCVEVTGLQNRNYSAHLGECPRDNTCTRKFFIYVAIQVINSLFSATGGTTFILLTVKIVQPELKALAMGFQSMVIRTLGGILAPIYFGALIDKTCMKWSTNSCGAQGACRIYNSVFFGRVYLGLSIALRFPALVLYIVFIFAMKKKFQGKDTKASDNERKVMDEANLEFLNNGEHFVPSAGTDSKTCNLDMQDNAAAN

[2] = biological target: T2, OATP8 (OATP1B3, SLCO1B3) (Homo sapiens, UniProt Q9NPD5); assay: as §1; details: HEK293 cells expressing OATP8
T2 sequence (Q9NPD5 whole entry): T1 sequence (Q9NPD5 whole entry)

[3] = biological target: T3, Solute carrier organic anion transporter family member 1B1 (Homo sapiens, UniProt Q9Y6L6); assay: (§2) TP_TRANSPORTER: uptake in OATP-C-expressing HEK293 cells
T3 sequence (Q9Y6L6 whole entry): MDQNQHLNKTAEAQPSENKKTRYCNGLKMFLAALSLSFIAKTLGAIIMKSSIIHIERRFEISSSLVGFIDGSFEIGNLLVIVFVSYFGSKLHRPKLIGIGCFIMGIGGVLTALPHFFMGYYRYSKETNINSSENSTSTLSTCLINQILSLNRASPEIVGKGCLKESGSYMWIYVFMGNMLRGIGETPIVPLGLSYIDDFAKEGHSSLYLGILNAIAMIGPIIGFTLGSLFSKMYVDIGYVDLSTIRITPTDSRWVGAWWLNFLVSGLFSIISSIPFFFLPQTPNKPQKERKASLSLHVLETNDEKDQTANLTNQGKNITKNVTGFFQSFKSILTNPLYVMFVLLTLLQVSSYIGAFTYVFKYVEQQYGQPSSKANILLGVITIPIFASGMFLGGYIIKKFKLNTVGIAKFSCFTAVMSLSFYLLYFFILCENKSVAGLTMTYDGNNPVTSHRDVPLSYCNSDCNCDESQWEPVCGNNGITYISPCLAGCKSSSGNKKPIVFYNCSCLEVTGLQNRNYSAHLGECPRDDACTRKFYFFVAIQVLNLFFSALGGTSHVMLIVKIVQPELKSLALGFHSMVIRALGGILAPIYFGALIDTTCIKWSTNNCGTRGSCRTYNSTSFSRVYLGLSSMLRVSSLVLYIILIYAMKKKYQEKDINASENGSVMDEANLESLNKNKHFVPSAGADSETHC

[4] = biological target: T3, Solute carrier organic anion transporter family member 1B1; assay: TP_TRANSPORTER: inhibition of E217betaG uptake (E217betaG: 2 uM, ICG: 10 uM) in OATP-C-expressing HEK293 cells; details: hek293, 10 µM
[5] = biological target: T1, Solute carrier organic anion transporter family member 1B3; assay: TP_TRANSPORTER: inhibition of E217betaG uptake (E217betaG: 2 uM, ICG: 10 uM) in OATP8-expressing HEK293 cells; details: hek293, 10 µM
[6] = biological target: T1, Solute carrier organic anion transporter family member 1B3; assay: TP_TRANSPORTER: inhibition of E217betaG uptake (E217betaG: 2 uM, Rifampicin: 75 uM) in OATP8-expressing HEK293 cells; details: hek293, 75 µM
[7] = biological target: T3, Solute carrier organic anion transporter family member 1B1; assay: TP_TRANSPORTER: inhibition of E217betaG uptake (E217betaG: 2 uM, Rifampicin: 75 uM) in OATP-C-expressing HEK293 cells; details: hek293, 75 µM
[8] = biological target: T1, Solute carrier organic anion transporter family member 1B3; assay: TP_TRANSPORTER: inhibition of E217betaG uptake (E217betaG: 2 uM, Rifamycin SV: 50 uM) in OATP8-expressing HEK293 cells; details: hek293, 50 µM
[9] = biological target: T3, Solute carrier organic anion transporter family member 1B1; assay: TP_TRANSPORTER: inhibition of E217betaG uptake (E217betaG: 2 uM, Rifamycin SV: 50 uM) in OATP-C-expressing HEK293 cells; details: hek293, 50 µM
[10] = biological target: T3, Solute carrier organic anion transporter family member 1B1; assay: TP_TRANSPORTER: inhibition of Bilirubin uptake (Bilirubin: 10 uM, BSP: 5 uM) in OATP-C-expressing HEK293 cells; details: hek293, 5 µM
[11] = substrate: C=CC1=C(C)/C(=C/c2[nH]c(Cc3[nH]c(/C=C4\NC(=O)C(C)=C4C=C)c(C)c3CCC(=O)O[C@@H]3O[C@@H](C(=O)O)[C@H](O)[C@@H](O)[C@@H]3O)c(CCC(=O)O[C@@H]3O[C@H](C(=O)O)[C@H](O)[C@H](O)[C@@H]3O)c2C)NC1=O; assay: as §2
[12] = substrate: C[C@]12CC[C@@H]3c4ccc(OS(=O)(=O)O)cc4CC[C@H]3[C@@H]1CCC2=O; assay: as §2
[13] = substrate: [H][C@@]12CC=C3C[C@@H](OS(=O)(=O)O)CC[C@]3(C)[C@@]1([H])CC[C@]1(C)C(=O)CC[C@@]21[H]; assay: as §2
[14] = substrate: C=CC1=C(C)/C(=C/c2[nH]c(Cc3[nH]c(/C=C4\NC(=O)C(C)=C4C=C)c(C)c3CCC(=O)O[C@@H]3OC(C(=O)O)[C@@H](O)C(O)C3O)c(CCC(=O)O)c2C)NC1=O; assay: as §2
[15] = substrate: O=C1OC(c2ccc(O)c(S(=O)(=O)O)c2)(c2ccc(O)c(S(=O)(=O)O)c2)c2c(Br)c(Br)c(Br)c(Br)c21; assay: as §2

`C=CC1=C(C)/C(=C/c2[nH]c(Cc3[nH]c(/C=C4\NC(=O)C(C)=C4C=C)c(C)c3CCC(=O)O[C@@H]3O[C@@H](C(=O)O)[C@H](O)[C@@H](O)[C@@H]3O)c(CCC(=O)O[C@@H]3O[C@H](C(=O)O)[C@H](O)[C@H](O)[C@@H]3O)c2C)NC1=O` was tested, and the Activity [1] was “is not a substrate [-]”.

For `C=CC1=C(C)/C(=C/c2[nH]c(Cc3[nH]c(/C=C4\NC(=O)C(C)=C4C=C)c(C)c3CCC(=O)O[C@@H]3OC(C(=O)O)[C@@H](O)C(O)C3O)c(CCC(=O)O)c2C)NC1=O` (some centres not stated) [BILIRUBIN MONOGLUCURONIDE], the Km [2] was 0.5 µM.

With `C=CC1=C(C)/C(=C/c2[nH]c(Cc3[nH]c(/C=C4\NC(=O)C(C)=C4C=C)c(C)c3CCC(=O)O)c(CCC(=O)O)c2C)NC1=O` [BILIRUBIN] the Activity [3] was “substrate [+]”.

`C[C@]12CC[C@@H]3c4ccc(OS(=O)(=O)O)cc4CC[C@H]3[C@@H]1CCC2=O` [ESTRONE SULFURIC ACID] was tested, and the Activity [1] was “is not a substrate [-]”.

With `CC1(C)C(/C=C/C=C/C=C/C=C2/N(CCCCS(=O)(=O)[O-])c3ccc4ccccc4c3C2(C)C)=[N+](CCCCS(=O)(=O)[O-])c2ccc3ccccc3c21.[Na+]` [INDOCYANINE GREEN] the Activity [4] was “inhibitor [(at a rough estimate) 5 % of control]” and the Activity [5] was “is not an inhibitor [-]”.

Molecule `C[C@]12CC[C@H](OS(=O)(=O)O)CC1=CC[C@@H]1[C@@H]2CC[C@]2(C)C(=O)CC[C@@H]12` [PRASTERONE SULFURIC ACID] has a Km [2] of over 30 µM.

With `CO[C@H]1/C=C/O[C@@]2(C)Oc3c(C)c(O)c4c(O)c(c(/C=N/N5CCN(C)CC5)c(O)c4c3C2=O)NC(=O)/C(C)=C\C=C\[C@H](C)[C@H](O)[C@@H](C)[C@@H](O)[C@@H](C)[C@H](OC(C)=O)[C@@H]1C` [RIFAMPIN] the Activity [6] was “inhibitor [(at a rough estimate) 10 % of control]” and the Activity [7] was “inhibitor [(at a rough estimate) 20 % of control]”.

With `CO[C@H]1/C=C/O[C@@]2(C)Oc3c(C)c(O)c4c(O)c(cc(O)c4c3C2=O)NC(=O)/C(C)=C\C=C\[C@H](C)[C@H](O)[C@@H](C)[C@@H](O)[C@@H](C)[C@H](OC(C)=O)[C@@H]1C` [RIFAMYCIN] the Activity [8] was “inhibitor [(at a rough estimate) 35 % of control]” and the Activity [9] was “inhibitor [(at a rough estimate) 20 % of control]”.

`O=C1OC(c2ccc(O)c(S(=O)(=O)[O-])c2)(c2ccc(O)c(S(=O)(=O)[O-])c2)c2c(Br)c(Br)c(Br)c(Br)c21.[Na+].[Na+]` [SULFOBROMOPHTHALEIN SODIUM] was tested, and the Activity [10] was “inhibitor [(at a rough estimate) 15 % of control]”.

B1: Solute carrier organic anion transporter family member 1B1 (Homo sapiens) (protein)
chain: T3 sequence (Q9Y6L6 whole entry)
B1 gave a Km [11] of 0.28 µM, a Km [12] of 12.5 µM and a Km [13] of 21.5 µM. The Km [14] was 0.1 µM and the Km [15] was 0.14 µM.
